The conditions of data set [1]: per 1 gram of water; cited from earlier work.
Data set [2] can be described thus: Complex formation with β-cyclodextrin, association constant (ITC measurements for cetirizine). In kind it is binding. The conditions noted are these: beta versus alpha and gamma cyclodextrin. From the text: Alpha cyclodextrin consists of a ring of 6 glucose units while beta has 7 glucose units in a ring and gamma has 8 glucose units in a ring. The ring structures form a crown. The inside of the crown is able to complex with APIs in the current application. […] Either the phenyl group or the 4-chlorophenyl group fit inside the ring structure. The inside cavity of cylcodextrins is largely hydrophobic, which is favorable for APIs' hydrophobic aromatic systems. The formation of the chelate structure is endothermically favorable due to electrostatic interactions of the pi system of the aromatic moiety with in the hydrophobic cavity and electronic interaction with the hydrogen atoms and glycidyl ether bonds. It is these electronic interactions between these systems of the cyclodextrin and the pi system that gives the favorable heat of formation. […] In one embodiment, the complexing composition consists essentially of beta-cyclodextrin.
Diphenhydramine forms complexes with cylcodextrins. The mechanism is similar to that of cetirizine. […] In one embodiment, the complexing agent comprises beta cyclodextrin, which is configured to form antihistamine complex. In some embodiments, the complexing agent comprises alpha-cyclodextrin, gamma-cyclodextrin, or a combination there. The action of coordination with diphenhydramine is similar to that of cetirizine.

The conditions of data set [3]: cited from earlier work.
For data set [4] the following is noted: cited from earlier work. This is another data set of the same source.
For data set [5] the following is noted: cited from earlier work. This is another data set of the same source.

The text below walks through data of patent US20210386732A1, “SEMI-SOLID ANTI-HISTAMINE COMPOSITIONS AND METHODS OF MAKING AND USING THEREOF” (SEATTLE GUMMY COMPANY, priority 2018, published 2021).

For `O=C(CO)[C@@H](O)[C@H](O)[C@H](O)CO` [fructose], in data set [1], the “amount that dissolves into 1 gram of water” value is given as around 4 grams.

As to `O=C(O)COCCN1CCN(C(c2ccccc2)c2ccc(Cl)cc2)CC1` (stereo not drawn) [Cetirizine, cetirizine], the “formation constant with beta cyclodextrin relative to alpha and gamma cyclodextrin” value in data set [2] is “nearly four times”. Further, the “association constant K(a) of the complex with α-cyclodextrin” value in data set [3] was 1434 ± 60 M⁻¹. Besides, the “association constant K(a) of the complex with β-cyclodextrin” value in data set [4] was 5641 ± 358 M⁻¹. Moreover, the “association constant K(a) of the complex with γ-cyclodextrin” value in data set [5] was 1200 ± 50 M⁻¹.

Regarding `OC[C@H]1O[C@@](CO)(O[C@H]2O[C@H](CO)[C@@H](O)[C@H](O)[C@H]2O)[C@@H](O)[C@@H]1O` [sucrose, O-α-D-glucopyranosyl-(1→2)-β-D-fructofuranoside], the “amount that dissolves into 1 gram of water” value in data set [1] is listed as “More than 2 grams”.
